In PubChem BioAssay (NCI):
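Growth conditions: 96-well plates. Treatment: test compound, 48 hours, 5 concentrations. Analysis: linear interpolation between bracketing concentrations; unreached endpoints set to highest concentration. GI50 marks 50% less growth. At the TGI there is no net growth.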

Experiments:
Test in all cases: growth of human tumour cells (NCI), 48 h
HOP-62 NSCLC = tested on: HOP-62 NSCLC
HCC-2998 colon = tested on: HCC-2998 colon
A549 NSCLC = tested on: A549 NSCLC
MOLT-4 leukemia = tested on: MOLT-4 leukemia
ACHN renal = tested on: ACHN renal
SN12C renal = tested on: SN12C renal
EKVX NSCLC = tested on: EKVX NSCLC
MCF7 breast = tested on: MCF7 breast
HL-60(TB) leukemia = tested on: HL-60(TB) leukemia
NCI-H522 lung = tested on: NCI-H522 lung
HCT-15 colon = tested on: HCT-15 colon
SK-OV-3 ovarian = tested on: SK-OV-3 ovarian
OVCAR-4 ovarian = tested on: OVCAR-4 ovarian
CCRF-CEM leukemia = tested on: CCRF-CEM leukemia
M14 melanoma = tested on: M14 melanoma
UO-31 renal = tested on: UO-31 renal
RPMI-8226 leukemia = tested on: RPMI-8226 leukemia
786-0 renal = tested on: 786-0 renal
SK-MEL-2 melanoma = tested on: SK-MEL-2 melanoma
HCT-116 colon = tested on: HCT-116 colon
NCI-H226 lung = tested on: NCI-H226 lung
NCI/ADR-RES ovarian = tested on: NCI/ADR-RES ovarian
NCI-H23 lung = tested on: NCI-H23 lung
SNB-19 CNS = tested on: SNB-19 CNS
SF-268 CNS = tested on: SF-268 CNS
MALME-3M melanoma = tested on: MALME-3M melanoma
LOX IMVI melanoma = tested on: LOX IMVI melanoma
DU-145 prostate = tested on: DU-145 prostate
HT29 colon = tested on: HT29 colon
SNB-75 CNS = tested on: SNB-75 CNS
UACC-62 melanoma = tested on: UACC-62 melanoma
SK-MEL-28 melanoma = tested on: SK-MEL-28 melanoma
OVCAR-3 ovarian = tested on: OVCAR-3 ovarian
U251 CNS = tested on: U251 CNS
MDA-MB-468 breast = tested on: MDA-MB-468 breast
CAKI-1 renal = tested on: CAKI-1 renal
MDA-MB-231 breast = tested on: MDA-MB-231 breast
IGROV1 ovarian = tested on: IGROV1 ovarian
HS 578T breast = tested on: HS 578T breast
T-47D breast = tested on: T-47D breast
NCI-H460 lung = tested on: NCI-H460 lung
MDA-MB-435 = tested on: MDA-MB-435
COLO 205 colon = tested on: COLO 205 colon
SF-539 CNS = tested on: SF-539 CNS
PC-3 prostate = tested on: PC-3 prostate
SR leukemia = tested on: SR leukemia
TK-10 renal = tested on: TK-10 renal
RXF 393 renal = tested on: RXF 393 renal
BT-549 breast = tested on: BT-549 breast
KM12 colon = tested on: KM12 colon
SW-620 colon = tested on: SW-620 colon
K-562 leukemia = tested on: K-562 leukemia
UACC-257 melanoma = tested on: UACC-257 melanoma
A498 renal = tested on: A498 renal
HOP-92 NSCLC = tested on: HOP-92 NSCLC
OVCAR-5 ovarian = tested on: OVCAR-5 ovarian
OVCAR-8 ovarian = tested on: OVCAR-8 ovarian
SF-295 CNS = tested on: SF-295 CNS
SK-MEL-5 melanoma = tested on: SK-MEL-5 melanoma

Cc1ccc(/C=C/C(=O)c2ccc(S(=O)(=O)NCCNc3nc(Nc4ccc(F)cc4)nc(N(C)C)n3)cc2)cc1
GI50 (HOP-62 NSCLC): 15.3 µM | TGI (HOP-62 NSCLC): 31.4 µM | GI50 (HCC-2998 colon): 4.5 µM | TGI (HCC-2998 colon): 15.8 µM | GI50 (A549 NSCLC): 10.5 µM | TGI (A549 NSCLC): 28.6 µM | GI50 (MOLT-4 leukemia): 3.86 µM | TGI (MOLT-4 leukemia): 48.6 µM | GI50 (ACHN renal): 6.31 µM | TGI (ACHN renal): 18.9 µM | GI50 (SN12C renal): 11.2 µM | TGI (SN12C renal): 23.4 µM | GI50 (EKVX NSCLC): 4.96 µM | TGI (EKVX NSCLC): 16.9 µM | GI50 (MCF7 breast): 2010 nM | TGI (MCF7 breast): 5.8 µM | GI50 (HL-60(TB) leukemia): 5.58 µM | TGI (HL-60(TB) leukemia): 32.1 µM | GI50 (NCI-H522 lung): 5.24 µM | TGI (NCI-H522 lung): 18.1 µM | GI50 (HCT-15 colon): 3.92 µM | TGI (HCT-15 colon): 10.9 µM | GI50 (SK-OV-3 ovarian): 17 µM | TGI (SK-OV-3 ovarian): 45.9 µM | GI50 (OVCAR-4 ovarian): 7.79 µM | TGI (OVCAR-4 ovarian): 33.8 µM | GI50 (CCRF-CEM leukemia): 5.28 µM | TGI (CCRF-CEM leukemia): > 100 µM | GI50 (M14 melanoma): 5.91 µM | TGI (M14 melanoma): 19.7 µM | GI50 (UO-31 renal): 6.77 µM | TGI (UO-31 renal): 19.8 µM | GI50 (RPMI-8226 leukemia): 2730 nM | TGI (RPMI-8226 leukemia): 8.28 µM | GI50 (786-0 renal): 10.5 µM | TGI (786-0 renal): 23.1 µM | GI50 (SK-MEL-2 melanoma): 11.2 µM | TGI (SK-MEL-2 melanoma): 24.2 µM | GI50 (HCT-116 colon): 1750 nM | TGI (HCT-116 colon): 3.28 µM | GI50 (NCI-H226 lung): 10.4 µM | TGI (NCI-H226 lung): 25.8 µM | GI50 (NCI/ADR-RES ovarian): 8.39 µM | TGI (NCI/ADR-RES ovarian): 21.1 µM | GI50 (NCI-H23 lung): 11.3 µM | TGI (NCI-H23 lung): 23.8 µM | GI50 (SNB-19 CNS): 11 µM | TGI (SNB-19 CNS): 23.6 µM | GI50 (SF-268 CNS): 8.76 µM | TGI (SF-268 CNS): 29.2 µM | GI50 (MALME-3M melanoma): 16.4 µM | TGI (MALME-3M melanoma): 31.6 µM | GI50 (LOX IMVI melanoma): 4.12 µM | TGI (LOX IMVI melanoma): 15.3 µM | GI50 (DU-145 prostate): 14 µM | TGI (DU-145 prostate): 32.4 µM | GI50 (HT29 colon): 2380 nM | TGI (HT29 colon): 5.25 µM | GI50 (SNB-75 CNS): 7.59 µM | TGI (SNB-75 CNS): 45 µM | GI50 (UACC-62 melanoma): 8.4 µM | TGI (UACC-62 melanoma): 21.1 µM | GI50 (SK-MEL-28 melanoma): 11.3 µM | TGI (SK-MEL-28 melanoma): 23.7 µM | GI50 (OVCAR-3 ovarian): 11.3 µM | TGI (OVCAR-3 ovarian): 24.8 µM | GI50 (U251 CNS): 11.6 µM | TGI (U251 CNS): 26 µM | GI50 (MDA-MB-468 breast): 4.66 µM | TGI (MDA-MB-468 breast): 17 µM | GI50 (CAKI-1 renal): 6.98 µM | TGI (CAKI-1 renal): 22.6 µM | GI50 (MDA-MB-231 breast): 6.56 µM | TGI (MDA-MB-231 breast): 20 µM | GI50 (IGROV1 ovarian): 15.1 µM | TGI (IGROV1 ovarian): 31 µM | GI50 (HS 578T breast): 10.7 µM | TGI (HS 578T breast): 47.4 µM | GI50 (T-47D breast): 3.86 µM | TGI (T-47D breast): 17.8 µM | GI50 (NCI-H460 lung): 4.22 µM | TGI (NCI-H460 lung): 15.8 µM | GI50 (MDA-MB-435): 6.03 µM | TGI (MDA-MB-435): 21.6 µM | GI50 (COLO 205 colon): 6.51 µM | TGI (COLO 205 colon): 20.9 µM | GI50 (SF-539 CNS): 13 µM | TGI (SF-539 CNS): 25.9 µM | GI50 (PC-3 prostate): 3.54 µM | TGI (PC-3 prostate): 18.2 µM | GI50 (SR leukemia): 2760 nM | TGI (SR leukemia): 11.2 µM | GI50 (TK-10 renal): 15.2 µM | TGI (TK-10 renal): 30.7 µM | GI50 (RXF 393 renal): 4.98 µM | TGI (RXF 393 renal): 18.2 µM | GI50 (BT-549 breast): 15.7 µM | TGI (BT-549 breast): 30.1 µM | GI50 (KM12 colon): 5.41 µM | TGI (KM12 colon): 24.5 µM | GI50 (SW-620 colon): 7.53 µM | TGI (SW-620 colon): 20.9 µM | GI50 (K-562 leukemia): 3.89 µM | TGI (K-562 leukemia): 25.3 µM | GI50 (UACC-257 melanoma): 17.4 µM | TGI (UACC-257 melanoma): 33.1 µM | GI50 (A498 renal): 12.6 µM | TGI (A498 renal): 25.5 µM | GI50 (HOP-92 NSCLC): 7.63 µM | TGI (HOP-92 NSCLC): 22.2 µM | GI50 (OVCAR-5 ovarian): 14.9 µM | TGI (OVCAR-5 ovarian): 28.2 µM | GI50 (OVCAR-8 ovarian): 13 µM | TGI (OVCAR-8 ovarian): 27 µM | GI50 (SF-295 CNS): 11.5 µM | TGI (SF-295 CNS): 23.8 µM | GI50 (SK-MEL-5 melanoma): 8.25 µM | TGI (SK-MEL-5 melanoma): 20.7 µM
